Here are results for one compound from patent US20150175545A1, “Preparation Method of Fluoro-Substituted Deuterated Diphenylurea” (SUZHOU ZELGEN BIOPHARMACEUTICAL CO., LTD, priority 2012, published 2015).

This data set in a line: Pharmacokinetic evaluation of CM4309.TsOH, CM4309.HCl and CM4309.H2O in SD rats. It counts as in vivo. Particulars: for AUC(0-inf): read-out: AUCINF_obs; for MRT inf: read-out: MRTINF_obs. The protocol:
Twelve male SD rats, weighing about 170 g, were randomly separated into […] and four rats in each group, and fasted overnight. The rats were administrated intragastric ally at a dose of 3 mg/kg (in a concentration of 1 mg/mL calculated by CM4309, and suspended in 0.5% CMC in purified water) of CM4309.TsOH, CM4309.HCl or CM4309.H2O. After administration, blood samples were collected at 0.25, 0.5, 1, 2, 4, 6, 8, 12, 24, 36 and 48 h. The blood samples were centrifuged for 5 minutes at 5000 rpm to separate the plasma. The concentration of CM4309 in plasma was measured by LC/MS/MS to compare the PK difference between CM4309 salts and CM4309 (see Table 1).

[1] abbreviates: SD rats, 3 mg/kg intragastric, ratio to CM4309.H2O.
The mark [2] stands for this setting: individual rat, 3 mg/kg (calculated by CM4309) intragastric, suspension in 0.5% CMC, CM4309 in plasma, hydrochloride, 3 mg/kg.
[3] abbreviates: male, SD, rat, plasma, po, 3 mg/kg, Mean of 4 rats, 3 mg/kg (calculated by CM4309) intragastric, suspension in 0.5% CMC, CM4309 in plasma.
[4] abbreviates: male, SD, rat, plasma, po, 3 mg/kg, individual rat, 3 mg/kg (calculated by CM4309) intragastric, suspension in 0.5% CMC, CM4309 in plasma.

SMILES strings stand for the structures. Where “and” joins values, the source holds several entries; their conditions need not be identical. Equal entries are not always repeated. Where two headings read alike, the source gives them in different places.

Take `Cl.[2H]C([2H])([2H])NC(=O)c1cc(Oc2ccc(NC(=O)Nc3ccc(Cl)c(C(F)(F)F)c3)c(F)c2)ccn1` [CM4309.HCl, 4-(4-(3-(4-chloro-3-(trifluoromethyl)phenyl]ureido)-3-fluorophenoxy)-N-(methyl-d3)picolinamide hydrochloride]: the HL_Lambda_z (Mean of 4 rats, 3 mg/kg (calculated by CM4309) intragastric, suspension in 0.5% CMC, CM4309 in plasma) was 8.25 h. Also, under setting [1], the “AUClast (Area Under Curve, Plasma Exposure) relative to CM4309.H2O” value is recorded as 8.7 folds and the “Cmax relative to CM4309.H2O” value is 8.4 folds. Moreover, under setting [2], the AUCINF_obs was 6.634 µg·h/mL and 7.151 µg·h/mL and 4.379 µg·h/mL; the AUClast is 6.514 µg·h/mL and 7.021 µg·h/mL and 4.258 µg·h/mL; the Cmax is 0.457 µg/mL and 0.46 µg/mL and 0.281 µg/mL; the HL_Lambda_z was 8.17 h and 7.77 h and 8.32 h and 8.74 h. For the same compound, under setting [2], the MRTINF_obs is 12.93 h and 12.58 h and 15.62 h; the Tmax is on record as 8 h. For the same compound, the Tmax (male, SD, in vivo, po, individual rat, 3 mg/kg (calculated by CM4309) intragastric, suspension in 0.5% CMC, CM4309 in plasma, read-out: Tmax) was 4 h. Also, under setting [3], the AUC(0-t) was 5.57 µg·h/mL, the AUC(0-inf) is 5.69 µg·h/mL and the MRT inf is 13.8 h. Under “male, SD, rat, plasma, po, 3 mg/kg, Mean of 4 rats, 3 mg/kg (calculated by CM4309) intragastric, suspension in 0.5% CMC, CM4309 in plasma, read-out: Cmax”, the Cmax was 0.379 µg/mL. Besides, the Tmax (male, SD, rat, plasma, po, 3 mg/kg, Mean of 4 rats, 3 mg/kg (calculated by CM4309) intragastric, suspension in 0.5% CMC, CM4309 in plasma, read-out: Tmax) was 5.5 h. Under setting [4], the AUC(0-t) is 4.49 µg·h/mL, the AUC(0-inf) is 4.61 µg·h/mL and the MRT inf is 13.9 h. Further, under “male, SD, rat, plasma, po, 3 mg/kg, individual rat, 3 mg/kg (calculated by CM4309) intragastric, suspension in 0.5% CMC, CM4309 in plasma, read-out: Cmax”, the Cmax is 0.316 µg/mL. Moreover, where the note is “male, SD, rat, plasma, po, 3 mg/kg, individual rat, 3 mg/kg (calculated by CM4309) intragastric, suspension in 0.5% CMC, CM4309 in plasma, read-out: Tmax”, the Tmax was 6 h.
